Measured values: ChEMBL document CHEMBL1201862, “PubChem BioAssay data set” (2004)
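All cell lines were grown in 96-well plates and treated with compound for 48 hours. GI50 marks 50% less growth.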 Calls of active or inactive are those of the source. Rule as the data show it: active = GI50 up to about 1.1 µM and inactive = higher.

Experiments:
Experiment in all cases: inhibition of tumour cell growth, NCI panel, 48 h
[1] = tested on: SW-620
[2] = tested on: SNB-19
[3] = tested on: NCI/ADR-RES
[4] = tested on: TK-10
[5] = tested on: HT-29
[6] = tested on: BT-549
[7] = tested on: SK-OV-3
[8] = tested on: RXF 393
[9] = tested on: HL-60
[10] = tested on: PC-3
[11] = tested on: SN12C
[12] = tested on: SK-MEL-2
[13] = tested on: 786-0
[14] = tested on: T47D
[15] = tested on: CAKI-1
[16] = tested on: ACHN
[17] = tested on: MCF7
[18] = tested on: MDA-N
[19] = tested on: A549
[20] = tested on: SR
[21] = tested on: SK-MEL-5
[22] = tested on: EKVX
[23] = tested on: DU-145
[24] = tested on: OVCAR-3
[25] = tested on: Malme-3M
[26] = tested on: UO-31
[27] = tested on: OVCAR-4
[28] = tested on: IGROV-1
[29] = tested on: MDA-MB-231
[30] = tested on: HCC 2998
[31] = tested on: OVCAR-5
[32] = tested on: M14
[33] = tested on: NCI-H460
[34] = tested on: OVCAR-8
[35] = tested on: CCRF-CEM
[36] = tested on: COLO 205
[37] = tested on: HOP-92
[38] = tested on: NCI-H226
[39] = tested on: NCI-H23
[40] = tested on: MDA-MB-435
[41] = tested on: UACC-257
[42] = tested on: UACC-62
[43] = tested on: SF-268
[44] = tested on: K562
[45] = tested on: SF-295
[46] = tested on: NCI-H522
[47] = tested on: KM12
[48] = tested on: U-251
[49] = tested on: RPMI-8226
[50] = tested on: HCT-15
[51] = tested on: LOX IMVI
[52] = tested on: SF-539
[53] = tested on: HCT-116
[54] = tested on: Hs-578T
[55] = tested on: SK-MEL-28
[56] = tested on: HOP-62
[57] = tested on: SNB-75
[58] = tested on: MOLT-4

O=c1cc(/N=N\c2ccc(Br)cc2)[nH]c(=S)[nH]1
GI50 [1]: 27.2 µM (inactive)
GI50 [2]: 61 µM (inactive)
GI50 [3]: 61.2 µM (inactive)
GI50 [4]: 17.3 µM (inactive)
GI50 [5]: 18.4 µM (inactive)
GI50 [6]: 56.6 µM (inactive)
GI50 [7]: > 100 µM (inactive)
GI50 [8]: 16.9 µM (inactive)
GI50 [9]: 19.3 µM (inactive)
GI50 [10]: 61.1 µM (inactive)
GI50 [11]: 96.4 µM (inactive)
GI50 [12]: 11.9 µM (inactive)
GI50 [13]: 4.7 µM (inactive)
GI50 [14]: 17.3 µM (inactive)
GI50 [15]: 10.4 µM (inactive)
GI50 [16]: 15.9 µM (inactive)
GI50 [17]: 15.8 µM (inactive)
GI50 [18]: 49.5 µM (inactive)
GI50 [19]: > 100 µM (inactive)
GI50 [20]: 27.6 µM (inactive)
GI50 [21]: 57.1 µM (inactive)
GI50 [22]: 19.8 µM (inactive)
GI50 [23]: 61.1 µM (inactive)
GI50 [24]: 15.4 µM (inactive)
GI50 [25]: 16.4 µM (inactive)
GI50 [26]: 55.8 µM (inactive)
GI50 [27]: 18.1 µM (inactive)
GI50 [28]: 53.1 µM (inactive)
GI50 [29]: 17.6 µM (inactive)
GI50 [30]: 17.8 µM (inactive)
GI50 [31]: 25.6 µM (inactive)
GI50 [32]: 15.7 µM (inactive)
GI50 [33]: 32.7 µM (inactive)
GI50 [34]: 23.1 µM (inactive)
GI50 [35]: 14.6 µM (inactive)
GI50 [36]: 21.9 µM (inactive)
GI50 [37]: 19.5 µM (inactive)
GI50 [38]: > 100 µM (inactive)
GI50 [39]: 32.7 µM (inactive)
GI50 [40]: 19.7 µM (inactive)
GI50 [41]: 27 µM (inactive)
GI50 [42]: 78.3 µM (inactive)
GI50 [43]: 39.3 µM (inactive)
GI50 [44]: 21.7 µM (inactive)
GI50 [45]: > 100 µM (inactive)
GI50 [46]: 15.5 µM (inactive)
GI50 [47]: 45.1 µM (inactive)
GI50 [48]: 36.4 µM (inactive)
GI50 [49]: 15.9 µM (inactive)
GI50 [50]: 14.9 µM
GI50 [51]: 15.3 µM (inactive)
GI50 [52]: 70.1 µM (inactive)
GI50 [53]: 18.2 µM (inactive)
GI50 [54]: 32.7 µM (inactive)
GI50 [55]: 20.4 µM (inactive)
GI50 [56]: > 100 µM (inactive)
GI50 [57]: > 100 µM (inactive)
GI50 [58]: 24.5 µM (inactive)
